Measurements reported in paper PMC10285950 (ACS Omega, 2023).
Values joined by “and” are separate entries in the source; they are usually repeats but may differ in a detail not shown here. Identical values can stand only once.

Experiments:
human 5HT1A receptor = molecular target: T1, human 5HT1A receptor (Homo sapiens, UniProt P08908); test: [3H]8-OH-DPAT binding at the 5-HT1A receptor; settings: HEK-h5HT1A membranes
T1 sequence (P08908 1-422): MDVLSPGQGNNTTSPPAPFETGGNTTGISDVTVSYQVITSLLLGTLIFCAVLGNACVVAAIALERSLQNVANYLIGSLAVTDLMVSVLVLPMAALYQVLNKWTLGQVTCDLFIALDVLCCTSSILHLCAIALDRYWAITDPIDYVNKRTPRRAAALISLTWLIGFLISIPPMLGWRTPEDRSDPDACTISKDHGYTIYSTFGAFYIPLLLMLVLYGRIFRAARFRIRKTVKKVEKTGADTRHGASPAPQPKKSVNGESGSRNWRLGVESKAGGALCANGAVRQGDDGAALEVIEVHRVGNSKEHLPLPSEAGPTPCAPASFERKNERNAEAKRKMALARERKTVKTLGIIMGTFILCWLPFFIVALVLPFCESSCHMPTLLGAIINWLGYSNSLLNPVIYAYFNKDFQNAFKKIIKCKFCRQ

h5HT7A receptor = h5HT7A receptor (Homo sapiens, UniProt P34969); test: [3H]5-HT binding at 5HT7A receptors; settings: HEK cells transiently transfected with h5HT7A
Sequence of h5HT7A receptor (P34969 1-445 isoform P34969-2): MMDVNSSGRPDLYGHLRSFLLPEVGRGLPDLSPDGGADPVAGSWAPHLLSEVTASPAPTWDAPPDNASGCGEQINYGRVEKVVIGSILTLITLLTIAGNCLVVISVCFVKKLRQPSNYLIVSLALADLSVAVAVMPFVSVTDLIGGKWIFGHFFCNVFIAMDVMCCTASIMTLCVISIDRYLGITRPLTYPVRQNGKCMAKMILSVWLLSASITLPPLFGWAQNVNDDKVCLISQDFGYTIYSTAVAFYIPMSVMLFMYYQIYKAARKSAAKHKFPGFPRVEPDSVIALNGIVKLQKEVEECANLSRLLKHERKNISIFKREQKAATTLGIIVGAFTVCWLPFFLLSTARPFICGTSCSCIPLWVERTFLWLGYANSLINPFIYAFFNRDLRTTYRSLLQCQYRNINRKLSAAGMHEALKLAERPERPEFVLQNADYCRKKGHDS

[1] = molecular target: T2, 5-HT1AR (HEK-h5HT1A membranes) (Homo sapiens, UniProt P08908); test: HEK-5HT1A [35S]GTPγS binding functional assay; format: biochemical; settings: for 5-HT1AR [35S]GTPγS assay % max ± SEM: maximal effect normalized to maximal effect of serotonin; for functional character at 5-HT1AR ([35S]GTPγS assay): result in words
T2 sequence (P08908 1-422): T1 sequence (P08908 1-422)

5-HT7AR [2] = molecular target: T3, 5-HT7AR (Homo sapiens, UniProt P34969); test: HEK-5HT7A/cAMP; format: cell-based
T3 sequence (P34969 1-445 isoform P34969-2): as above

5-HT7AR [3] = molecular target: T3, 5-HT7AR; test: HEK-5HT7A/cAMP; format: cell-based; remark: listed apart in the source

## NCCc1c[nH]c2ccc(O)cc12 [5-HT, serotonin]
Human 5HT1A receptor
  5-HT1AR [3H]8-OH-DPAT binding hill slope ± SEM: –0.96 ± 0.06
h5HT7A receptor
  5-HT7AR [3H]5-HT binding hill slope ± SEM: –1.07 ± 0.09
[1]
  5-HT1AR [35S]GTPγS assay % max ± SEM: 101.2 ± 1.1%
  functional character at 5-HT1AR ([35S]GTPγS assay): full agonist
[1]; listed as serotonin (5-HT)
  5-HT1AR [35S]GTPγS assay % max ± SEM: 101.2%
5-HT7AR [2]; agonist effect, normalized to maximal serotonin effect
  5-HT7AR adenylate cyclase % max ± SEM: 95.8% and 95.8 ± 1.6%

## CC1(CCCN2CCN(c3ccccn3)CC2)Cc2cc(Cl)ccc2C1=O (racemic) [SYA0340, 5-chloro-2-methyl-2-(3-(4-(pyridin-2-yl)piperazin-1-yl)propyl)-2,3-dihydro-1H-inden-1-one]
Human 5HT1A receptor
  5-HT1AR [3H]8-OH-DPAT binding hill slope ± SEM: –0.66 ± 0.09
h5HT7A receptor
  5-HT7AR [3H]5-HT binding hill slope ± SEM: –0.59 ± 0.03
[1]
  5-HT1AR [35S]GTPγS assay % max ± SEM: 101.5% and 101.5 ± 2.8%
  functional character at 5-HT1AR ([35S]GTPγS assay): full agonist
5-HT7AR [2]; result in words
  agonist activity at 5-HT7AR: do not show any agonist activity
5-HT7AR [3]; maximal inhibition of cAMP formation defined with 10 μM lurasidone
  5-HT7AR adenylate cyclase % max inhib. ± SEM: 94.7 ± 4.1%

## O=C1[C@@H]2[C@H]3CC[C@H](C3)[C@@H]2C(=O)N1C[C@@H]1CCCC[C@H]1CN1CCN(c2nsc3ccccc23)CC1 [lurasidone]
h5HT7A receptor
  5-HT7AR [3H]5-HT binding hill slope ± SEM: –0.76 ± 0.11
5-HT7AR [3]; read-out: 5-HT7AR adenylate cyclase % max inhib. ± SEM
  inhibition: 98 ± 2%
